One compound from patent US7538106B2, “Application of 2-cyano-10- (2-methyl-3- (methylamino)- propyl) phenothiazine or a pharmaceutically acceptable salt as medicament” (Aventis Pharmaceuticals Inc., priority 2003, dated 2009) can be followed below.

pIC50, pKi: −log10 of the molar value.

In one assay the target is 5-HT2c (h) (Homo sapiens, UniProt P28335). The assay is described as follows: Binding to membrane receptors of central neuromediators of human origin: 5-HT2c.
In another assay the target is M3 (h) (Homo sapiens, UniProt P20309). The assay is described as follows: Binding to membrane receptors of central neuromediators of human origin: M3. Conditions: M3 (h) receptor binding. The source says:
(§1) The results of this study of binding to these various membrane receptors of central neuromediators of human origin are presented in Table 1.

The next assay concerns the target H1 (h) (Homo sapiens, UniProt P35367). The experiment in a line: Binding to membrane receptors of central neuromediators of human origin: H1. The note with it: H1 (h) receptor binding.
Description: as §1

For the next assay, the target named is T1, 5-HT1A (h) (Homo sapiens, UniProt P08908).
T1 sequence (P08908 1-422): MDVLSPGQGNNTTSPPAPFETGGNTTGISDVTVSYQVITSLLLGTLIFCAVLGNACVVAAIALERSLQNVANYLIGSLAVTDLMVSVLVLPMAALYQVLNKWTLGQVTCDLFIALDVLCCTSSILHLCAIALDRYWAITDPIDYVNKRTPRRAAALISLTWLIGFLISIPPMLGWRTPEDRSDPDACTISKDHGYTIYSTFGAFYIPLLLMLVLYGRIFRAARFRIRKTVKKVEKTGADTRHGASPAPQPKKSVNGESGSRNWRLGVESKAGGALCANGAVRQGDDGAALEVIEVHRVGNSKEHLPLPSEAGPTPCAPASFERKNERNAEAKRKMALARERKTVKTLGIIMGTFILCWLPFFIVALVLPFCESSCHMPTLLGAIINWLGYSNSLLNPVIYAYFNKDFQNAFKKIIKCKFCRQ
The experiment in a line: Binding to membrane receptors of central neuromediators of human origin: 5-HT1A. The note with it: 5-HT1A (h) receptor binding.
Description: as §1

The next assay deals with D2 (h) (Homo sapiens, UniProt P14416). The assay is described as follows: Binding to membrane receptors of central neuromediators of human origin: D2. The note with it: D2 (h) receptor binding.
D2 (h), sequence (P14416 whole entry): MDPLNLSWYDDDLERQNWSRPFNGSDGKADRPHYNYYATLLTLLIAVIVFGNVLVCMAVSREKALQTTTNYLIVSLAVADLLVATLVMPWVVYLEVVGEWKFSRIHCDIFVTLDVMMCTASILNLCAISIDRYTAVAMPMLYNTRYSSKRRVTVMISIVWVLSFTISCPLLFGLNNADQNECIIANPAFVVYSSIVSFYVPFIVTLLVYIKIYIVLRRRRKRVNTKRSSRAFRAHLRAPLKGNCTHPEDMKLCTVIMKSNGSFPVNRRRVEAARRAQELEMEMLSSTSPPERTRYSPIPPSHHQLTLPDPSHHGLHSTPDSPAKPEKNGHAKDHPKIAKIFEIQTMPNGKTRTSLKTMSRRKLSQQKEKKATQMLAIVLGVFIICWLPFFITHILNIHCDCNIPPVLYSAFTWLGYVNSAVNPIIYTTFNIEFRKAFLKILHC
Description: as §1

In a further assay the test system is mice. The experiment in a line: Actimetry test (sedative activity, spontaneous motor activity). The class given is in vivo. Conditions: spontaneous motor activity recorded for 10 minutes. On the procedure: The sedative activity of the product was determined with mice according to an actimetry test. The actimeter is a device composed of 6 transparent cages in which the animals are individually placed. Photoelectric cells make it possible to detect movements in the cages (by cutting the beam). The spontaneous motor activity is recorded for 10 minutes. The results are expressed in the mean form and in the form of percentage of activity with respect to the control batch. The results are expressed in Table 2.

A further assay has as its target 5-HT2A (h) (Homo sapiens, UniProt P28223). The experiment in a line: Binding to membrane receptors of central neuromediators of human origin: 5-HT2A. Conditions: 5-HT2A (h) receptor binding.
The target of a further assay is T2, M1 (h) (Homo sapiens, UniProt P11229).
T2 sequence (P11229 1-460): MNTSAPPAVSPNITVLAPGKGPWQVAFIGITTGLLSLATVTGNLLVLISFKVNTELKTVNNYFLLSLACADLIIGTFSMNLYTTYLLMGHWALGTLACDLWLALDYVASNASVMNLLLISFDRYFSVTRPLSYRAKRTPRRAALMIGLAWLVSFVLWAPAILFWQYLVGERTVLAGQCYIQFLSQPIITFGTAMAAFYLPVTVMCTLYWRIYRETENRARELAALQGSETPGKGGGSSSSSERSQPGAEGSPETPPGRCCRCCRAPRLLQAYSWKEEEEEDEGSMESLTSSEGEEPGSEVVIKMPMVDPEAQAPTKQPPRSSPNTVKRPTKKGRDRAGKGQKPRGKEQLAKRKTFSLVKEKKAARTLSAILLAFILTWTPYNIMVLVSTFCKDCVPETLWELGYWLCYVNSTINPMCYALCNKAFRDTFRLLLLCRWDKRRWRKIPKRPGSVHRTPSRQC
The experiment in a line: Binding to membrane receptors of central neuromediators of human origin: M1. The note with it: M1 (h) receptor binding.
Description: as §1

A further assay deals with T3, M2 (h) (Homo sapiens, UniProt P08172).
T3 sequence (P08172 1-466): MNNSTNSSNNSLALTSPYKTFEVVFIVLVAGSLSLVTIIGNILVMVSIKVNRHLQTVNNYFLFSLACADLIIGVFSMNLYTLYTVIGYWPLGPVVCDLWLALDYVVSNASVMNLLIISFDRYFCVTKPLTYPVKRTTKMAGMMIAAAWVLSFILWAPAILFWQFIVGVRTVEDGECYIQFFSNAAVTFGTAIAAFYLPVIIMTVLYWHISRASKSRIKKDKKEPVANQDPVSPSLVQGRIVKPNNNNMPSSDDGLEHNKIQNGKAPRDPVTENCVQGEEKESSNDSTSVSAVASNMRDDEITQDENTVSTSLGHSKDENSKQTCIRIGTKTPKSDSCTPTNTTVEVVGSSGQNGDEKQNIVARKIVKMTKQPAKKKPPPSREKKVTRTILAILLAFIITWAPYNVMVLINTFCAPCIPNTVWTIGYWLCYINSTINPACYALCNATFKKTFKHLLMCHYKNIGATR
The experiment in a line: Binding to membrane receptors of central neuromediators of human origin: M2. Conditions: M2 (h) receptor binding.
Description: as §1

5-HT2c (h), sequence (P28335 33-458): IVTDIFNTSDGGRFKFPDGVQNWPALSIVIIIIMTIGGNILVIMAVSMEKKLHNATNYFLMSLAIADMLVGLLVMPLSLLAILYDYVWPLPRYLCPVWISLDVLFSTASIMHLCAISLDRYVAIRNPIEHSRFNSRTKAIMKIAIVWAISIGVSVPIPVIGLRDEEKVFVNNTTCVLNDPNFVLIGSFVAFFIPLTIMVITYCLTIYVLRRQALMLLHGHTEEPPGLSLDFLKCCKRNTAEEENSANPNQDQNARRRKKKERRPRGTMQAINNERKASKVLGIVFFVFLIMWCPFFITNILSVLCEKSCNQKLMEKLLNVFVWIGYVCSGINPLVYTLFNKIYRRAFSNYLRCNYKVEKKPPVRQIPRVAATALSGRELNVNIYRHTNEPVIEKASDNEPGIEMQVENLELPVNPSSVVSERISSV
M3 (h), sequence (P20309 whole entry): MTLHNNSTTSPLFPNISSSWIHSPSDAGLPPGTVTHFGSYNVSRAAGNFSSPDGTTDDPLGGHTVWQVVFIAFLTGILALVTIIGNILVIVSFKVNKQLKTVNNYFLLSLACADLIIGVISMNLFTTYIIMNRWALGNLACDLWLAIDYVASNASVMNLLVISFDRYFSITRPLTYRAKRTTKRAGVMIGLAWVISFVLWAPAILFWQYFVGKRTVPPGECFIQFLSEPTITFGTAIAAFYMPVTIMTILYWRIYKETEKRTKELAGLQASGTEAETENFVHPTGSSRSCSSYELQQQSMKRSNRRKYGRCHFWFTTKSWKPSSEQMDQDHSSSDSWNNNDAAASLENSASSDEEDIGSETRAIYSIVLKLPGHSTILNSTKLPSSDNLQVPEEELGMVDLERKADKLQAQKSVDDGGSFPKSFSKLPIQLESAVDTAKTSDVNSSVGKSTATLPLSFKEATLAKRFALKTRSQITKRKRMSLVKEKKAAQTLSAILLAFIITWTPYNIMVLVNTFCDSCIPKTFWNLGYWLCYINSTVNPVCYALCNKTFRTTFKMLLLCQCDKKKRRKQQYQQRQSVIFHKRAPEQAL
H1 (h), sequence (P35367 whole entry): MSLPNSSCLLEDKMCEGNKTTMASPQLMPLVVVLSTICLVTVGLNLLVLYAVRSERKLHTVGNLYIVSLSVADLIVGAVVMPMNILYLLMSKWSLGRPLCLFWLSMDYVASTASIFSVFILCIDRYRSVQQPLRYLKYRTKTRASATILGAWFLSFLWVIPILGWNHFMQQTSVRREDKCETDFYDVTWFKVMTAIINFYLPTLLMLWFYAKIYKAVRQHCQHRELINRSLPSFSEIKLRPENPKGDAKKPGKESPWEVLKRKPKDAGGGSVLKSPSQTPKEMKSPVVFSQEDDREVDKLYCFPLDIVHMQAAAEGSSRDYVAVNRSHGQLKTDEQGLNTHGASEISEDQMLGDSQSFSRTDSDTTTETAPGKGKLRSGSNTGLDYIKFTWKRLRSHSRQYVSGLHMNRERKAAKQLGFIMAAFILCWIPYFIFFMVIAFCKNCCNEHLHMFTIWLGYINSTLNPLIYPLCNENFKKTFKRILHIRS
5-HT2A (h), sequence (P28223 whole entry): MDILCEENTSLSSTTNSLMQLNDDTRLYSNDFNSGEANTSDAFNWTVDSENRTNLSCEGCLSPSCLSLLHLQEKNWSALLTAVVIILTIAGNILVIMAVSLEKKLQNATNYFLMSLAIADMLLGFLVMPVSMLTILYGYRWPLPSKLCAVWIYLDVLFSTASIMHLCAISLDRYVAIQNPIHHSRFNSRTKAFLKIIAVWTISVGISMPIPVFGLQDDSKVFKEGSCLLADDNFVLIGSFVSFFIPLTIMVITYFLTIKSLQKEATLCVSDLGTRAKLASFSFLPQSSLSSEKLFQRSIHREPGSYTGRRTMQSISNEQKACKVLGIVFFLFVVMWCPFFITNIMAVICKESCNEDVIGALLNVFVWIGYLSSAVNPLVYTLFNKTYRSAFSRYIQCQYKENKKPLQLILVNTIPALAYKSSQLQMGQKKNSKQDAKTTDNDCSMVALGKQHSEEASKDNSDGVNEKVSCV

`CNCC(C)CN1c2ccccc2Sc2ccc(C#N)cc21` (stereo not drawn) [2-cyano-10-(2-methyl-3-(methylamino)propyl)phenothiazine]: the pIC50 (commonly the IC50 on a negative log10 scale, so that one unit is a factor of ten) on 5-HT2c (h) (5-HT2c (h) receptor binding) is 7.64; at M3 (h), 5.26; on H1 (h), 7.66; on 5-HT1A (h), 6.34; on D2 (h), 7.51; on 5-HT2A (h) it was 8.05. In addition, the figures for the pIC50 at M1 (h) and at M2 (h) were 7.68 and 6.43, respectively. Besides, the pKi (as a rule, −log10 of the Ki, conventionally taken in molar units) on 5-HT2c (h) (5-HT2c (h) receptor binding) is 8.07; at M3 (h) it was 5.41; at H1 (h), 8.03; at 5-HT1A (h) it was 6.74; on D2 (h), 7.92; on 5-HT2A (h), 8.82. In addition, the negative logarithm of the Ki (pKi) at M1 (h) is 7.77; at M2 (h), 6.60. The “affinity for 5-HT2c receptors” value at 5-HT2c (h) (in words) is “high affinity”. The “% of activity/control” value is listed as 61% in the assay on mice (dose 0.75 mg/kg), 63% with mice (dose 1 mg/kg), 26% in the assay on mice (dose 2 mg/kg) and 9% in the assay with mice (dose 4 mg/kg).
